What was measured:
[1] = biological target: Mitogen-activated protein kinase 7 (Homo sapiens) (UniProt Q13164); settings: at 10 µM
[2] = biological target: Calcium/calmodulin-dependent protein kinase type II subunit alpha (Homo sapiens, UniProt Q9UQM7); test: Selectivity interaction (KinomeScan (DiscoverX)) EUB0001049a CAMK2A; settings: at 1 µM
[3] = biological target: MAP kinase-interacting serine/threonine-protein kinase 2 (Homo sapiens, UniProt Q9HBH9); test: Selectivity interaction (KinomeScan (DiscoverX)) EUB0000229b MKNK2; settings: at 10 µM
[4] = biological target: Tyrosine-protein kinase Blk (Homo sapiens) (UniProt P51451); test: Selectivity interaction (KinomeScan (DiscoverX)) EUB0000229b BLK; settings: at 10 µM
[5] = biological target: Serine/threonine-protein kinase PAK 6 (Homo sapiens) (UniProt Q9NQU5); test: Selectivity interaction (KinomeScan (DiscoverX)) EUB0001079a PAK6; settings: at 1 µM
[6] = biological target: 5'-AMP-activated protein kinase catalytic subunit alpha-1 (Homo sapiens, UniProt Q13131); test: Selectivity interaction (KinomeScan (DiscoverX)) EUB0001079a PRKAA1; settings: at 1 µM
[7] = biological target: T1, Serine/threonine-protein kinase TBK1 (Homo sapiens) (UniProt Q9UHD2); test: Selectivity interaction (ProQinase) EUB0000171b TBK1
T1 sequence (whole entry): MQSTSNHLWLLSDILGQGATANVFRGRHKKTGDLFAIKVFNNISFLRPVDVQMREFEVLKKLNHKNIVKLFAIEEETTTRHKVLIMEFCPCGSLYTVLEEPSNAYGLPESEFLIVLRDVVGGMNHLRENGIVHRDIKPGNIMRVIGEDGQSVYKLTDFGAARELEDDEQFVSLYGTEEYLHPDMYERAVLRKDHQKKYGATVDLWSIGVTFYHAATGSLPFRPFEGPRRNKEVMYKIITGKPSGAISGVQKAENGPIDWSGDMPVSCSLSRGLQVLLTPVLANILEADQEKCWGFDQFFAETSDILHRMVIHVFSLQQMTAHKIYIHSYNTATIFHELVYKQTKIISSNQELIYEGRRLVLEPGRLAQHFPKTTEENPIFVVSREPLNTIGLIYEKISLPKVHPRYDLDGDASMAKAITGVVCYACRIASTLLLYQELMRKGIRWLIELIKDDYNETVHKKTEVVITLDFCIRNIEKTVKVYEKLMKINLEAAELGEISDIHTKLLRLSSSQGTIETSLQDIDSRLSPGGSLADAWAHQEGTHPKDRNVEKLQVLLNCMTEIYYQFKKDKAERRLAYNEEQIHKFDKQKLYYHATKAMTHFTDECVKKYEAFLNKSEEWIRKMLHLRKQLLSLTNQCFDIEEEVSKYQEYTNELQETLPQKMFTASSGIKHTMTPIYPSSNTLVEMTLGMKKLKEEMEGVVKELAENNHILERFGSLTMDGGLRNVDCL

[8] = biological target: Tyrosine-protein kinase receptor UFO (Homo sapiens) (UniProt P30530); test: Selectivity interaction (ProQinase) EUB0000171b AXL
[9] = biological target: T2, Serine/threonine-protein kinase Sgk2 (Homo sapiens) (UniProt Q9HBY8); test: Selectivity interaction (ProQinase) EUB0000171b SGK2
T2 sequence (whole entry): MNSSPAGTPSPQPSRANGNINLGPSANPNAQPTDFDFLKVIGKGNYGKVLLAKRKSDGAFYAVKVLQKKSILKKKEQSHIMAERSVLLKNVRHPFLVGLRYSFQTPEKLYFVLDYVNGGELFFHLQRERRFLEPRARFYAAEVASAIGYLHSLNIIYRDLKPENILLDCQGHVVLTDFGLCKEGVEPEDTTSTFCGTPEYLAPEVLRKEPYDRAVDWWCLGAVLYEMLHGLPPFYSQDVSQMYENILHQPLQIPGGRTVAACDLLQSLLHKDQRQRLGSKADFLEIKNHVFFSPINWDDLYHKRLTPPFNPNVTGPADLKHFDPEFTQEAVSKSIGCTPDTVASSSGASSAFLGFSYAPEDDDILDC

[10] = biological target: T3, Serine/threonine-protein kinase ICK (Homo sapiens) (UniProt Q9UPZ9); test: Selectivity interaction (KinomeScan (DiscoverX)) EUB0001619a ICK; settings: at 1 µM
T3 sequence (whole entry): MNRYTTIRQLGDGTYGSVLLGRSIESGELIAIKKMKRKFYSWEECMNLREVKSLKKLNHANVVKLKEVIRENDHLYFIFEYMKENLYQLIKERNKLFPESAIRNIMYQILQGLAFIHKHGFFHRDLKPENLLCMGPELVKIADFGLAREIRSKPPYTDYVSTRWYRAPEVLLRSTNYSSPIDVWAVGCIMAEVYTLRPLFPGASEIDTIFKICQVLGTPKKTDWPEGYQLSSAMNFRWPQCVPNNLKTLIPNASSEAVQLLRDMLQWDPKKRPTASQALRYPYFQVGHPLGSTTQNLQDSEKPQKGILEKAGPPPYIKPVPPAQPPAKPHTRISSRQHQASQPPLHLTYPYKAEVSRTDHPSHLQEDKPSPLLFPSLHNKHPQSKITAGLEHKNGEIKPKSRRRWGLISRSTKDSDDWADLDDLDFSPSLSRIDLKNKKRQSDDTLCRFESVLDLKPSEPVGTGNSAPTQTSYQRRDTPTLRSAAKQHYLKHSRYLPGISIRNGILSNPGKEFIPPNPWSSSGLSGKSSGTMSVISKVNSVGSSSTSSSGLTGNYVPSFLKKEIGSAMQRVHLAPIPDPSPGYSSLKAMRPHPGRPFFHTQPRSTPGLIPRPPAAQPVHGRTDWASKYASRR

[11] = Selectivity interaction (KinomeScan (DiscoverX)) EUB0000618a CDK2H; settings: at 10 µM
[12] = system: Phosphatidylinositol 4,5-bisphosphate 3-kinase catalytic subunit alpha isoform (Homo sapiens), P42336 [E545A]; settings: at 10 µM
[13] = biological target: Cell division control protein 42 homolog (Homo sapiens) (UniProt P60953); test: Selectivity interaction (SelectScreen profiling (Invitrogen)) EUB0000607a CDC42; settings: at 2 µM
Sequence of Cell division control protein 42 homolog (Homo sapiens) (P60953 whole entry, looked up): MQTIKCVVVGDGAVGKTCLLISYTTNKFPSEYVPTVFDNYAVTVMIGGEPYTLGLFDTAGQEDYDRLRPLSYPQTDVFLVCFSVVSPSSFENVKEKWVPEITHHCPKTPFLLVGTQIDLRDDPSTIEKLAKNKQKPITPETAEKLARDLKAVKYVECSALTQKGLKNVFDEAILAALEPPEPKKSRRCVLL

Sequence of Tyrosine-protein kinase receptor UFO (Homo sapiens) (P30530 whole entry): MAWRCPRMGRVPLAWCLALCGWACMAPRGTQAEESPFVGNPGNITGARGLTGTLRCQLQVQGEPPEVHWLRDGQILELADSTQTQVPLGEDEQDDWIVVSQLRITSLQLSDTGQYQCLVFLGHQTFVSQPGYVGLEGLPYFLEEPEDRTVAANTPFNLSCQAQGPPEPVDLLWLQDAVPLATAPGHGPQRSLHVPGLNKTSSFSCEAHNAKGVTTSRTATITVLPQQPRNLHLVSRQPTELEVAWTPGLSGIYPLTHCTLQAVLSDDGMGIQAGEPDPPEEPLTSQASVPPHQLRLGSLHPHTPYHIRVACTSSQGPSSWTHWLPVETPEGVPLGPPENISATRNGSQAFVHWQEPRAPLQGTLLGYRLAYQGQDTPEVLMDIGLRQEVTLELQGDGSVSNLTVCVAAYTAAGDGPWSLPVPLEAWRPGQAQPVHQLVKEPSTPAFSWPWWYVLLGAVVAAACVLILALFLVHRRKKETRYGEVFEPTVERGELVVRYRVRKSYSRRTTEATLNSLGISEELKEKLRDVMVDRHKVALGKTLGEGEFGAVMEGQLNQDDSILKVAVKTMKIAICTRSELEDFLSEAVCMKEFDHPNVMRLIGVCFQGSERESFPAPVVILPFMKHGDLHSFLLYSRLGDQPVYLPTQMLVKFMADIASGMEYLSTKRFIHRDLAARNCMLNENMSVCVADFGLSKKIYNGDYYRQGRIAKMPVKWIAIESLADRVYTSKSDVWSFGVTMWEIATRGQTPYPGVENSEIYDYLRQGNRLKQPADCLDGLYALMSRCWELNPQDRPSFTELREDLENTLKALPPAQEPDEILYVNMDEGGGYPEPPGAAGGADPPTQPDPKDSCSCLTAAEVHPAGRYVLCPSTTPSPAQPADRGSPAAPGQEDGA
Sequence of Phosphatidylinositol 4,5-bisphosphate 3-kinase catalytic subunit alpha isoform (Homo sapiens), P42336 [E545A] (P42336 whole entry E545A, canonical isoform): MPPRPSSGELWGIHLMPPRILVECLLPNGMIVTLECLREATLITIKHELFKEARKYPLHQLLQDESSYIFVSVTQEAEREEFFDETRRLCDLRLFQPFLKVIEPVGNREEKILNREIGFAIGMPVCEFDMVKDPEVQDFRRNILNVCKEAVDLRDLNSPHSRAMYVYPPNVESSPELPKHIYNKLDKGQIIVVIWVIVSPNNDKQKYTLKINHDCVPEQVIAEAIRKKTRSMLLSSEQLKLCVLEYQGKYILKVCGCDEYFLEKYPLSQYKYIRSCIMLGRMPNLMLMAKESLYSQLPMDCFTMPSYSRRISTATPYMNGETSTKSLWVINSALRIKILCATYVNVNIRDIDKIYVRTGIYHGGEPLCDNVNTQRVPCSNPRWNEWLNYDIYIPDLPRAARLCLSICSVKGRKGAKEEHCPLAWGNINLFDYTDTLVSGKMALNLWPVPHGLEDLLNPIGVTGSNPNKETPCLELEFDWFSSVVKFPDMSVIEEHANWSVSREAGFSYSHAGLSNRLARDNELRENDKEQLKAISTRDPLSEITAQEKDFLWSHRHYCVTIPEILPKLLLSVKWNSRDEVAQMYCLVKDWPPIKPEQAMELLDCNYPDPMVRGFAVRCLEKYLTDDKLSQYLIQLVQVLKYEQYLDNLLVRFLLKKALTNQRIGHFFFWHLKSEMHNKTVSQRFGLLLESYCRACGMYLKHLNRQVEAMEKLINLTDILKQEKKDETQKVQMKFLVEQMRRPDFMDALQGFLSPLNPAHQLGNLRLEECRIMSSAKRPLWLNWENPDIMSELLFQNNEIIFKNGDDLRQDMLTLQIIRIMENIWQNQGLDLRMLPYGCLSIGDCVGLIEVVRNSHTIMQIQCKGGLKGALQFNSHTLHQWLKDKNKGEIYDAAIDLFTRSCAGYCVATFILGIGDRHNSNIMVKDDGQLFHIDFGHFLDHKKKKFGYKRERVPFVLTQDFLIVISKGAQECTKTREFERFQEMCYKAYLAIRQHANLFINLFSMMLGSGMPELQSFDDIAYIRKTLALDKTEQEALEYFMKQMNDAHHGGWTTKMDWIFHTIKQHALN
Sequence of Tyrosine-protein kinase Blk (Homo sapiens) (P51451 2-505 limits assumed): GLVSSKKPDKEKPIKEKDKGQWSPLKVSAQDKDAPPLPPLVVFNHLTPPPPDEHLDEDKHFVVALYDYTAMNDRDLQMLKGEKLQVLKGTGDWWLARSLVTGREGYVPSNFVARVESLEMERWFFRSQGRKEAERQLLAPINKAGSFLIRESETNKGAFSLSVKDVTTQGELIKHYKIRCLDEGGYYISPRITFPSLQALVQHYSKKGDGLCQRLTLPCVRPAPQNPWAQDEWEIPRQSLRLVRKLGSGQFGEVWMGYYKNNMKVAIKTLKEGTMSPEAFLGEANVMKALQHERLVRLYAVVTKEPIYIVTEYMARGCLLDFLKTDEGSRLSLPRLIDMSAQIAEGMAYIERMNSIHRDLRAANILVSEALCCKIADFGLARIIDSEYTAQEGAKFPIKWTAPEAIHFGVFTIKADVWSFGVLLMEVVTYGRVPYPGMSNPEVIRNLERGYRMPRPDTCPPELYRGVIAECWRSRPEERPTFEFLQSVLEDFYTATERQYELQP
Sequence of Calcium/calmodulin-dependent protein kinase type II subunit alpha (Q9UQM7 whole entry): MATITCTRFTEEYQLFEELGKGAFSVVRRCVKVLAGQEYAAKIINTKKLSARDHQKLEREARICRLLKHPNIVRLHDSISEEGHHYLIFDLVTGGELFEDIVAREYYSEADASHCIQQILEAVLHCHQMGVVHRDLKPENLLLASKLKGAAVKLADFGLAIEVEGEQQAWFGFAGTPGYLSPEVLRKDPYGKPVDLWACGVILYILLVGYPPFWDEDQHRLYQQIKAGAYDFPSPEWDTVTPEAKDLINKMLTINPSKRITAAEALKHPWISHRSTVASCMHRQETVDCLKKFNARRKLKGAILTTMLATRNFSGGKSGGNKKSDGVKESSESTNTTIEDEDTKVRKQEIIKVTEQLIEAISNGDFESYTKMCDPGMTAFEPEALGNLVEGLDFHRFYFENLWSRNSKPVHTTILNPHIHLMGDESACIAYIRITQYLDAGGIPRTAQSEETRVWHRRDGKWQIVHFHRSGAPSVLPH
Sequence of Serine/threonine-protein kinase PAK 6 (Homo sapiens) (Q9NQU5 whole entry, looked up): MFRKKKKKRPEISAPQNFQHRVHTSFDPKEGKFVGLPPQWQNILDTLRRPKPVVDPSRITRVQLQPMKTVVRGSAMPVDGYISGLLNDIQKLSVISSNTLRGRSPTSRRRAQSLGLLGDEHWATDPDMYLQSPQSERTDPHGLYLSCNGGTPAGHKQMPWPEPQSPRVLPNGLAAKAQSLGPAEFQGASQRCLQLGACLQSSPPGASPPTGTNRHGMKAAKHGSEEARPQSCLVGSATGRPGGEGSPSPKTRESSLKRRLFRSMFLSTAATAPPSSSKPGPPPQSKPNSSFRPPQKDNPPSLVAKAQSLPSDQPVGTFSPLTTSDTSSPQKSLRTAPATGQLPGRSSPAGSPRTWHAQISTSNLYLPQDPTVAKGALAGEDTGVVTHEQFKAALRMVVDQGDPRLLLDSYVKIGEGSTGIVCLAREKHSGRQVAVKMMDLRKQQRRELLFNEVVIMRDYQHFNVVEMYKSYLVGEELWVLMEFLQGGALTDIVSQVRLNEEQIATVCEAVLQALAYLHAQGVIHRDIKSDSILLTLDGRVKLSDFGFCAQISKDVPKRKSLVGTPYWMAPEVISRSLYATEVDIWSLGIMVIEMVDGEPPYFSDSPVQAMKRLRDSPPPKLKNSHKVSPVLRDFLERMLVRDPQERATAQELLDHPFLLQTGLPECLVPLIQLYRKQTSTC
Sequence of Mitogen-activated protein kinase 7 (Homo sapiens) (Q13164 2-816 limits assumed): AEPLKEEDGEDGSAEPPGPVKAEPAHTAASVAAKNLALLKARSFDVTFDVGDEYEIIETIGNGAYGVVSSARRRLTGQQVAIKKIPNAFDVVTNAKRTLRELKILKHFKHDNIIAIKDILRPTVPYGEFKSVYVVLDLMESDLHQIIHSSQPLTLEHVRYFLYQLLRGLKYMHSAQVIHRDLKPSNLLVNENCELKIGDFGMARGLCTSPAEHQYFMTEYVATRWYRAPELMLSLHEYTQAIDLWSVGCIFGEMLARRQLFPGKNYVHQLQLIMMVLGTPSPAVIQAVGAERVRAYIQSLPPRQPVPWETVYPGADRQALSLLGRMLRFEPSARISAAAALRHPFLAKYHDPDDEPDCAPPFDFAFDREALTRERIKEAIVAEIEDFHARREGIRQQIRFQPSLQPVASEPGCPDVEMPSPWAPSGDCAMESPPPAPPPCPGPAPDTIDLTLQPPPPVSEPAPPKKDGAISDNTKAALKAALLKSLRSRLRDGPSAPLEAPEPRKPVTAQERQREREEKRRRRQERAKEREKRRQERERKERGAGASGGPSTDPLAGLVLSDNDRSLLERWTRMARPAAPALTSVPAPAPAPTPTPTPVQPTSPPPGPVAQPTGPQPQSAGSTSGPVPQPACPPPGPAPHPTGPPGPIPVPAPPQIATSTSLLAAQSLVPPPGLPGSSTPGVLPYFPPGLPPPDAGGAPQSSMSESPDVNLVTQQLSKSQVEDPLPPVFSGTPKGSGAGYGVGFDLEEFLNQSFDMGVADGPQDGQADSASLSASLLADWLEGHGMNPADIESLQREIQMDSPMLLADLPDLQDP

Structure (SMILES): Cc1cc([C@@H](C)Nc2ccccc2C(=O)O)c2nc(N3CCOCC3)cc(=O)n2c1 [AZD-6482]
- % of control [1]: 100%

Structure (SMILES): COc1cc(Nc2nc(C)cc(-c3cnn4nc(OC)ccc34)n2)cc(C(F)(F)F)c1
- % of control [2]: 85%

Structure (SMILES): COc1cc(N(C)c2ccnc3ccc(C(F)(F)F)cc23)cc(OC)c1OC
- % binding [3]: 90%
- % binding [4]: 100%

Structure (SMILES): Nc1cnc(N2CCc3cc(S(=O)(=O)Nc4c(F)cc(Cl)cc4F)cc(N4CCCC4=O)c32)nc1 [TP-020n]
- % of control [5]: 90%
- % of control [6]: 100%

Structure (SMILES): C=CC(=O)Nc1cccc(C(=O)Nc2ccc(Nc3cc(-c4[nH]c(SC)nc4C)ccn3)cc2)c1
- % of control ([7]; at 1 µM): 84%
- % of control ([7]; at 5 µM): 69%
- % of control ([8]; at 1 µM): 99%
- % of control ([8]; at 5 µM): 76%
- % of control ([9]; at 1 µM): 93%
- % of control ([9]; at 5 µM): 71%

Structure (SMILES): N#Cc1cccc(-c2c[nH]c3ncnc(N4CCOCC4)c23)c1
- % of control [10]: 96%

Structure (SMILES): O[C@H]1CC[C@H](Nc2ncc3nc(Nc4c(F)cc(F)cc4F)n([C@H]4CCOC4)c3n2)CC1
- % of control [11]: 100%

Structure (SMILES): CNC(=O)Nc1ccc(-c2nc(N3CC4CCC(C3)O4)c3cnn(C4CCC5(CC4)OCCO5)c3n2)cc1
- % of control [12]: 8.8%
- % of inhibition [13]: 7%
